# Test results: ChEMBL document CHEMBL3885881, “DrugMatrix”
# Species on record: Rattus norvegicus
# Assay: DrugMatrix - Regimen: Daily Repeat
# Type: toxicity, organism-based, Sprague-Dawley
# Design: regimen Daily Repeat, gender Male, age 6-8 weeks
# Conditions: in vivo, po, route oral GAVAGE, vehicle .5 % CMC; for ABSOLUTE BASOPHIL / ABSOLUTE EOSINOPHIL / ABSOLUTE LYMPHOCYTE / ABSOLUTE MONOCYTE / ABSOLUTE SEGMENTED NEUTROPHIL / BASOPHIL / EOSINOPHIL / ERYTHROCYTE COUNT / HEMATOCRIT / HEMOGLOBIN / LEUKOCYTE COUNT / LYMPHOCYTE / MEAN CORPUSCULAR HEMOGLOBIN / MEAN CORPUSCULAR HEMOGLOBIN CONCENTRATION / MEAN CORPUSCULAR VOLUME / MONOCYTE / NEUTROPHIL / NUCLEATED RED BLOOD CELLS / PLATELET COUNT: tissue Blood; for ALANINE AMINOTRANSFERASE / ALBUMIN / ALKALINE PHOSPHATASE / ASPARTATE AMINOTRANSFERASE / BLOOD UREA NITROGEN / CARBON DIOXIDE / CHLORIDE / CHOLESTEROL / CREATINE PHOSPHOKINASE / CREATININE / GLUCOSE / LACTATE DEHYDROGENASE / LIPASE / PHOSPHORUS / POTASSIUM / SODIUM / TOTAL BILIRUBIN / TOTAL PROTEIN / URIC ACID: tissue Plasma
# [1] = 55 mg/kg, 120 h, dose level Low, time 5 day
# [2] = 1000 mg/kg, 72 h, dose level High, time 3 day
# [3] = 1000 mg/kg, 120 h, dose level High, time 5 day
compound,measurement,setting,value
CCN1CCCC1CNC(=O)c1cc(S(N)(=O)=O)ccc1OC (centres undefined) [SULPIRIDE],ABSOLUTE BASOPHIL,[1],0 CELLS/uL
same,ABSOLUTE EOSINOPHIL,[1],0 CELLS/uL
same,ABSOLUTE LYMPHOCYTE,[1],14792 CELLS/uL
same,ABSOLUTE MONOCYTE,[1],54.33 CELLS/uL
same,ABSOLUTE SEGMENTED NEUTROPHIL,[1],2187 CELLS/uL
same,BASOPHIL,[1],0%
same,EOSINOPHIL,[1],0%
same,ERYTHROCYTE COUNT,[1],5.47 x10E6/uL
same,HEMATOCRIT,[1],34.67%
same,HEMOGLOBIN,[1],13.83 G/DL
same,LEUKOCYTE COUNT,[1],17.03 x10E3/uL
same,LYMPHOCYTE,[1],86%
same,MEAN CORPUSCULAR HEMOGLOBIN,[1],25.3 pg
same,MEAN CORPUSCULAR HEMOGLOBIN CONCENTRATION,[1],39.93 G/DL
same,MEAN CORPUSCULAR VOLUME,[1],63.4 fL
same,MONOCYTE,[1],0.33%
same,NEUTROPHIL,[1],13.67%
same,NUCLEATED RED BLOOD CELLS,[1],0 /100WBC
same,PLATELET COUNT,[1],1253.33 x10E3/uL
same,ALANINE AMINOTRANSFERASE,[1],50.67 u/L
same,ALBUMIN,[1],4.43 G/DL
same,ALKALINE PHOSPHATASE,[1],322.67 u/L
same,ASPARTATE AMINOTRANSFERASE,[1],90 u/L
same,BLOOD UREA NITROGEN,[1],16 mg/dL
same,CARBON DIOXIDE,[1],28 mmol/L
same,CHLORIDE,[1],102 MEQ/L
same,CHOLESTEROL,[1],86.33 mg/dL
same,CREATINE PHOSPHOKINASE,[1],434.67 u/L
same,CREATININE,[1],0.2 mg/dL
same,GLUCOSE,[1],160.33 mg/dL
same,LACTATE DEHYDROGENASE,[1],149 u/L
same,LIPASE,[1],9 u/L
same,PHOSPHORUS,[1],13 mg/dL
same,POTASSIUM,[1],6.98 MEQ/L
same,SODIUM,[1],147.83 MEQ/L
same,TOTAL BILIRUBIN,[1],0.2 mg/dL
same,TOTAL PROTEIN,[1],6.2 G/DL
same,URIC ACID,[1],1.9 mg/dL
same,ABSOLUTE BASOPHIL,[2],0 CELLS/uL
same,ABSOLUTE EOSINOPHIL,[2],50.67 CELLS/uL
same,ABSOLUTE LYMPHOCYTE,[2],15013.67 CELLS/uL
same,ABSOLUTE MONOCYTE,[2],0 CELLS/uL
same,ABSOLUTE SEGMENTED NEUTROPHIL,[2],1202.33 CELLS/uL
same,BASOPHIL,[2],0%
same,EOSINOPHIL,[2],0.33%
same,ERYTHROCYTE COUNT,[2],5.92 x10E6/uL
same,HEMATOCRIT,[2],38.13%
same,HEMOGLOBIN,[2],15.07 G/DL
same,LEUKOCYTE COUNT,[2],16.27 x10E3/uL
same,LYMPHOCYTE,[2],92%
same,MEAN CORPUSCULAR HEMOGLOBIN,[2],25.5 pg
same,MEAN CORPUSCULAR HEMOGLOBIN CONCENTRATION,[2],39.53 G/DL
same,MEAN CORPUSCULAR VOLUME,[2],64.5 fL
same,MONOCYTE,[2],0%
same,NEUTROPHIL,[2],7.67%
same,NUCLEATED RED BLOOD CELLS,[2],0 /100WBC
same,PLATELET COUNT,[2],1327 x10E3/uL
same,ALANINE AMINOTRANSFERASE,[2],52.33 u/L
same,ALBUMIN,[2],4.53 G/DL
same,ALKALINE PHOSPHATASE,[2],415 u/L
same,ASPARTATE AMINOTRANSFERASE,[2],78.33 u/L
same,BLOOD UREA NITROGEN,[2],16.67 mg/dL
same,CARBON DIOXIDE,[2],29.33 mmol/L
same,CHLORIDE,[2],102.67 MEQ/L
same,CHOLESTEROL,[2],85 mg/dL
same,CREATINE PHOSPHOKINASE,[2],227.33 u/L
same,CREATININE,[2],0.21 mg/dL
same,GLUCOSE,[2],146 mg/dL
same,LACTATE DEHYDROGENASE,[2],310 u/L
same,LIPASE,[2],9.33 u/L
same,PHOSPHORUS,[2],14.17 mg/dL
same,POTASSIUM,[2],7.01 MEQ/L
same,SODIUM,[2],147.37 MEQ/L
same,TOTAL BILIRUBIN,[2],0.2 mg/dL
same,TOTAL PROTEIN,[2],6.33 G/DL
same,URIC ACID,[2],1.47 mg/dL
same,ABSOLUTE BASOPHIL,[3],0 CELLS/uL
same,ABSOLUTE EOSINOPHIL,[3],69.67 CELLS/uL
same,ABSOLUTE LYMPHOCYTE,[3],10948.67 CELLS/uL
same,ABSOLUTE MONOCYTE,[3],52.33 CELLS/uL
same,ABSOLUTE SEGMENTED NEUTROPHIL,[3],1129.33 CELLS/uL
same,BASOPHIL,[3],0%
same,EOSINOPHIL,[3],0.67%
same,ERYTHROCYTE COUNT,[3],5.48 x10E6/uL
same,HEMATOCRIT,[3],36.03%
same,HEMOGLOBIN,[3],14.33 G/DL
same,LEUKOCYTE COUNT,[3],12.2 x10E3/uL
same,LYMPHOCYTE,[3],89.67%
same,MEAN CORPUSCULAR HEMOGLOBIN,[3],26.17 pg
same,MEAN CORPUSCULAR HEMOGLOBIN CONCENTRATION,[3],39.77 G/DL
same,MEAN CORPUSCULAR VOLUME,[3],65.8 fL
same,MONOCYTE,[3],0.33%
same,NEUTROPHIL,[3],9.33%
same,NUCLEATED RED BLOOD CELLS,[3],0.33 /100WBC
same,PLATELET COUNT,[3],1145.33 x10E3/uL
same,ALANINE AMINOTRANSFERASE,[3],56.33 u/L
same,ALBUMIN,[3],4.6 G/DL
same,ALKALINE PHOSPHATASE,[3],436.67 u/L
same,ASPARTATE AMINOTRANSFERASE,[3],86 u/L
same,BLOOD UREA NITROGEN,[3],17.67 mg/dL
same,CARBON DIOXIDE,[3],26.33 mmol/L
same,CHLORIDE,[3],99.33 MEQ/L
same,CHOLESTEROL,[3],77 mg/dL
same,CREATINE PHOSPHOKINASE,[3],198 u/L
same,CREATININE,[3],0.18 mg/dL
same,GLUCOSE,[3],150.67 mg/dL
same,LACTATE DEHYDROGENASE,[3],162 u/L
same,LIPASE,[3],13.33 u/L
same,PHOSPHORUS,[3],14.83 mg/dL
same,POTASSIUM,[3],7.2 MEQ/L
same,SODIUM,[3],147.4 MEQ/L
same,TOTAL BILIRUBIN,[3],0.2 mg/dL
same,TOTAL PROTEIN,[3],6.37 G/DL
same,URIC ACID,[3],1.9 mg/dL
